Source: patent publication US20020165149A1, “Mutated class II major histocompatibility proteins” (priority 2000, published 2002)
Where two headings read alike, the source gives them in different places. No end group written: not given here. *: point of attachment. Biotin = O=C1N[C@H]2[C@H](CS[C@H]2CCCCC(=O)*)N1

Legend:
I-A^g7 = test: Direct binding of biotinylated peptide to L-cells transfected with I-A^g7 (flow cytometry); set-up: species or system murine; details: 3 hours at 37° C., pH 6; streptavidin-PE detection
I-A^g7-negative L-cells = details: peptide 1.6 μM-50 μM, 3 hours at 37° C., pH 6
Protocol: FIG. 13 is a binding curve showing I-A^g7-positive L-cell binding to titrated amounts of B-1040-63 peptide (1.6 μM-50 μM).

Chain of I-A^g7 (as listed by the source): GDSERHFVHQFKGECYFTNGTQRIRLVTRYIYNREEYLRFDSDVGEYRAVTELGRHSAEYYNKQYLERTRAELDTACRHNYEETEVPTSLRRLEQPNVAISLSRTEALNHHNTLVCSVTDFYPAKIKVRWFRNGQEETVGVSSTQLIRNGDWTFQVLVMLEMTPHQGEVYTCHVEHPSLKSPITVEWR
Chain of I-A^g7 (P04228 24-256): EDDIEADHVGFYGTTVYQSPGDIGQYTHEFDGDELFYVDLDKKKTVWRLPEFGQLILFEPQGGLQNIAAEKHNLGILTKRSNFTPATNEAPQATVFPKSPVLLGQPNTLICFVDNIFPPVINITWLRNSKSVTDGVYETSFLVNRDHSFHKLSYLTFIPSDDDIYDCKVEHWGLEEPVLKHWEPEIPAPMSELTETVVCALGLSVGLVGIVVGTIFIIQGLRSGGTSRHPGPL

Biotin-RTRPLWVRME [Mut B-1040-63]
binding to L cells transfected with IA^g7 (I-A^g7): bind specifically
binding to untransfected (I-A^g7-negative) L cells (I-A^g7-negative L-cells): does not bind
binding to untransfected (I-A^g7-negative) L cells (I-A^g7-negative L-cells; listed as B-104-63): does not occur
